These results are taken from US20250099423A1, “PIPERAZINE-BASED AGONISTS OF LFA-1 AND VLA-4” (Texas Heart Institute, priority 2021, published 2025).

The structures appear in SMILES notation.

One test deals with T1, α4β1/VCAM-1 (Homo sapiens, UniProt P05556+P13612).
T1 construct: The Jurkat (VCAM-1 assays) and HSB (ICAM-1 assays) cell lines were obtained from American Type Culture Collection; endogenous in cells; host or cells: Jurkat cells (ATCC)
In words: Static cell adhesion assay, Jurkat cells on VCAM-1 (α4β1/VCAM-1). The class given is cell-based. The following applies: ratio compound activity/control THI0019 (average 33 μM) run on the same plate. As to the method: (§1) For in vitro cell adhesion assays, compounds were dissolved in DMSO to make a series of stock solutions such that a 1:100 dilution in assay buffer would yield the desired final working concentrations in 1% DMSO (vehicle). Human VCAM-1 and ICAM-1 were purchased from R&D Systems (Minneapolis, MN). The Jurkat (VCAM-1 assays) and HSB (ICAM-1 assays) cell lines were obtained from American Type Culture Collection (Manassas, VA) and were maintained in recommended culture media.
(§2) Assays were performed as previously described in 1. Vanderslice, P., Woodside, D. G., Caivano, A. R., Decker, E. R., Munsch, C. L., Sherwood, S. J., Lejeune, W. S., Miyamoto, Y. J., McIntyre, B. W., Tilton, R. G., and Dixon, R. A. (2010) Potent in vivo suppression of inflammation by selectively targeting the high affinity conformation of integrin alpha4beta1. Biochem Biophys Res Commun 400, 619-624; and 2. Vanderslice, P., Biediger, R. J., Woodside, D. G., Brown, W. S., Khounlo, S., Warier, N. D., Gundlach, C. W. t., Caivano, A. R., Bornmann, W. G., Maxwell, D. S., McIntyre, B. W., Willerson, J. T., and Dixon, R. A. (2013) Small molecule agonist of very late antigen-4 (VLA-4) integrin induces progenitor cell adhesion. J Biol Chem 288, 19414-19428. VCAM-1 or ICAM-1 ligand in 50 μL of 50 mM Tris-HCl (pH 7.4), 150 mM NaCl, (TBS) was added to wells of a 96-well plate and allowed to coat overnight at 4° C. To maximize the window to evaluate agonist activity, a sub-optimal coating concentration of ligand was used, typically between 0.5 and 5 μg/mL in 50 μL TBS for VCAM-1 and ICAM-1 respectively. This ligand concentration corresponded approximately to that which would yield≤ 5% adhesion as determined by dose-response curves. Briefly, 2×10^6 cells were labeled for 30 minutes with calcein-AM (Molecular Probes), washed, resuspended in binding buffer, and added to triplicate wells of ligand-coated plates (2×10^5 cells/well) that had been blocked with 2% BSA. After a 30-minute incubation at 37° C., the plates were washed 3 times with binding buffer, the adherent cells were lysed, and fluorescence was measured on a Tecan Safire^2 plate reader. The binding buffer was PBS with 1 mM MgCl2, 50% FBS for α4β1/VCAM-1 assays and PBS with 2 mM MgCl2, 5 mM EGTA, 50% FBS for αLβ2/ICAM-1 assays. EC50 is defined as the concentration of compound required to achieve 50% of the maximal response.

In a further test the target is T2, LFA-1 (Homo sapiens, UniProt P05107+P20701).
T2 construct: The Jurkat (VCAM-1 assays) and HSB (ICAM-1 assays) cell lines were obtained from American Type Culture Collection; endogenous in cells; host or cells: HSB cells (ATCC)
In words: Static cell adhesion assay, HSB cells on ICAM-1 (αLβ2/ICAM-1; LFA-1). The class given is cell-based. The following applies: Dose 3 μM, compound and THI0349 at the same concentration; ratio >1 = more potent agonist. As for the experimental part: as §1, §2
THI0019 and THI0349 (average 11 μM) reported values here were obtained under the assay conditions reported herein and ran higher in the presence of serum than those values under different assay conditions. […] Relative to THI0019 (average 33 μM) as a control against CS1, the ratio of (compound activity/control) is as follows: Group I< or =1. Group II at least a ratio of >1 up to 2× that of THI0019 ran on the same plate; Group III is >2× of THI0019 but less than 5×; and Group IV>5× of THI0019 (with an upper limit of approximately 200 mM). In relation to LAD (Leukocyte Adhesion Deficiency), LFA-1 ratios are determined by dividing the relative fluorescence units (RFU) of each compound over that of the reference standard of THI0349, (RFU Compound/RFU of THI0349). Against LFA-1, the signal for THI0349 at 3 μM was compared to the claimed compounds at the same concentration.

T2 sequence (P20701 26-1170): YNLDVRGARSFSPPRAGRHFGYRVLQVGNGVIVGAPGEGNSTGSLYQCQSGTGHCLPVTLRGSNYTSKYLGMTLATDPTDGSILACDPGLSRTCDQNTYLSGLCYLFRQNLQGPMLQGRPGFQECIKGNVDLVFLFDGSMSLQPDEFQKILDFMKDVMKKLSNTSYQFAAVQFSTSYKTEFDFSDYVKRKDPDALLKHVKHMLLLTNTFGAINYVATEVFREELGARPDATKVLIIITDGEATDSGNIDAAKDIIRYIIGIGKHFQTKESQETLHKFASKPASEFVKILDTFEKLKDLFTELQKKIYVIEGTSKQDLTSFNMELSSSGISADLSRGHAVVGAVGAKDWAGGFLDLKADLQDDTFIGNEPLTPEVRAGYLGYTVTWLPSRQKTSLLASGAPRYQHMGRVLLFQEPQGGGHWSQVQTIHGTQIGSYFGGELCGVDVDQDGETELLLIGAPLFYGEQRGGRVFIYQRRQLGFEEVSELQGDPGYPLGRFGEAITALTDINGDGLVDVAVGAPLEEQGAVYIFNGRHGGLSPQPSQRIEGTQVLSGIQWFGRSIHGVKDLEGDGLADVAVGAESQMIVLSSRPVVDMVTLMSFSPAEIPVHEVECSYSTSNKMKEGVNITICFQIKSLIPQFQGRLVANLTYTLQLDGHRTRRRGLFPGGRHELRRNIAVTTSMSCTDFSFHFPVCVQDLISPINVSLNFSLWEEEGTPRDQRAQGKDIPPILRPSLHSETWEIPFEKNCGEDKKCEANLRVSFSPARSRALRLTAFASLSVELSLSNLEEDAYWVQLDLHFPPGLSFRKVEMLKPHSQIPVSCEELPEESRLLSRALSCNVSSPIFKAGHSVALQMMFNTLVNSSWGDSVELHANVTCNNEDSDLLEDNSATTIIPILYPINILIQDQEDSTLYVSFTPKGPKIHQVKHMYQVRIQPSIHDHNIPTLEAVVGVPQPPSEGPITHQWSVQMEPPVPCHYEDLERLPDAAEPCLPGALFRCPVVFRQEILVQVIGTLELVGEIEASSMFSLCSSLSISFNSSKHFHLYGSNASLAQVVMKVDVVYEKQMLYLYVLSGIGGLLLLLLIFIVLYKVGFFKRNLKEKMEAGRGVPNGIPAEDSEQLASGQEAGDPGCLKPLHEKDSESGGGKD
T2 sequence (P05107 23-769): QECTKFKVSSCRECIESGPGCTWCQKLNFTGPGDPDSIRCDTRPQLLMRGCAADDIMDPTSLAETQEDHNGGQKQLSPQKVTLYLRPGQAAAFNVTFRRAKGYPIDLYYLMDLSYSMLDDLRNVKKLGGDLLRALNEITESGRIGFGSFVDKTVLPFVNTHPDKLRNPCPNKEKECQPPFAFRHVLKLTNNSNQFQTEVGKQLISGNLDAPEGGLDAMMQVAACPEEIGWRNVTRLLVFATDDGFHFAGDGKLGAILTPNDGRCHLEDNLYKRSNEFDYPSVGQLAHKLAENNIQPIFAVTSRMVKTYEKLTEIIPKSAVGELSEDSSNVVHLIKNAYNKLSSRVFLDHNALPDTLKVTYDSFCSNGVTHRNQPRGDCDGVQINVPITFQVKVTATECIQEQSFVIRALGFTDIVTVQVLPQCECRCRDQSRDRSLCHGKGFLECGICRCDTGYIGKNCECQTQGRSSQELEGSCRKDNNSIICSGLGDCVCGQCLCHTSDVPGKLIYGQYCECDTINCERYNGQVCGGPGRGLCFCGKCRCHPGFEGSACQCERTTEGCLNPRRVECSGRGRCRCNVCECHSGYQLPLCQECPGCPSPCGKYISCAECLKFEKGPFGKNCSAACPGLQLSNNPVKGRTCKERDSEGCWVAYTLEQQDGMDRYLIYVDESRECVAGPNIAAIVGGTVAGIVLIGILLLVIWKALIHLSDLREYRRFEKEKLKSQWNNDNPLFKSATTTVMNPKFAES
T1 sequence (P13612 34-1032): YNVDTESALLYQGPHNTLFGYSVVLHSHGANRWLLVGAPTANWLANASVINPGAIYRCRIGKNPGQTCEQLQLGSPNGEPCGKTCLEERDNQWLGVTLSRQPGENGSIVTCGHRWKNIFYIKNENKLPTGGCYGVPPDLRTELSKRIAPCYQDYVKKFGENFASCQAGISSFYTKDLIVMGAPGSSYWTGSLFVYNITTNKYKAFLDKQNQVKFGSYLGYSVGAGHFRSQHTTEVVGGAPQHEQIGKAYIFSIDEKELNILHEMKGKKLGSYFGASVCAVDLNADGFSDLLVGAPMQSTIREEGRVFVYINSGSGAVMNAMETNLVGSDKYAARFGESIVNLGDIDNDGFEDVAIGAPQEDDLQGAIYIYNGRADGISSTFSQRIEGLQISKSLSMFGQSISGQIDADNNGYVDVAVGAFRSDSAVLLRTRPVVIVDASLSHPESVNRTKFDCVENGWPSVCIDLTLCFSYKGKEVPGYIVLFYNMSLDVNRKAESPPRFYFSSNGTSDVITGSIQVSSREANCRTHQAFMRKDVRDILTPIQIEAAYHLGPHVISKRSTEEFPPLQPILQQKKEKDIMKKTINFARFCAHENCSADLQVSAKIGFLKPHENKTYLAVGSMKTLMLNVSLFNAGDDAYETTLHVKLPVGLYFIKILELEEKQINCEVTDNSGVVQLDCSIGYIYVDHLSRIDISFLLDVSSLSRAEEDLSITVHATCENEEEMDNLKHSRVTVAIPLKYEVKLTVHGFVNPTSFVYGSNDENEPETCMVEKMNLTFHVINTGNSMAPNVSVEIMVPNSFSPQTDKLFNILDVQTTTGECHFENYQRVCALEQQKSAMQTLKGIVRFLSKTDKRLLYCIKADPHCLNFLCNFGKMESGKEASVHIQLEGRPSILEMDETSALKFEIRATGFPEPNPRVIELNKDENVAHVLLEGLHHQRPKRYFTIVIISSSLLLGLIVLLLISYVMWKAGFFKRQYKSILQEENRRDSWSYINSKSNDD
T1 sequence (P05556 21-798): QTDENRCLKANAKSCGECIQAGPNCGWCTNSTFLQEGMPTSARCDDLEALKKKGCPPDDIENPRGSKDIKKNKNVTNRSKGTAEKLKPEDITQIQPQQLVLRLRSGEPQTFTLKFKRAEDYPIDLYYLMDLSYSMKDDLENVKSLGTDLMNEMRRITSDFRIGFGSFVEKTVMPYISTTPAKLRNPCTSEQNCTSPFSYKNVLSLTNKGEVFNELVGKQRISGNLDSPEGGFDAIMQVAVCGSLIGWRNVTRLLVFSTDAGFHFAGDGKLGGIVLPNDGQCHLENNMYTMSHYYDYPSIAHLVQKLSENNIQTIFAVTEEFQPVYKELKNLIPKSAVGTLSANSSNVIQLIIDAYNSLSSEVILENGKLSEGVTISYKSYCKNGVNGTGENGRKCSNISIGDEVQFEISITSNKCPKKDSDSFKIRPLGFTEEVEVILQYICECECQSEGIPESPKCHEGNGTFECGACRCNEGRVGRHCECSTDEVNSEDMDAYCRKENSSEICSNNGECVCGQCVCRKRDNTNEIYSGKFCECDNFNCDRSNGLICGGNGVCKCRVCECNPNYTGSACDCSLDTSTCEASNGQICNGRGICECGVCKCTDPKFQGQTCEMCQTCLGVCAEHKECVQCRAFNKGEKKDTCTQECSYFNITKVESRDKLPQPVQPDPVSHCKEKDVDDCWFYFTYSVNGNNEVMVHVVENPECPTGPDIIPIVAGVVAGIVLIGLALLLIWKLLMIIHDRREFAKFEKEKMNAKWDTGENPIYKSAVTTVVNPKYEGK

With `COc1ccc(CN(Cc2cccc(N(C)C)c2)C(=O)CN2CC(=O)N(CC(=O)N(Cc3ccc(OC)cc3)Cc3cccc(N(C)C)c3)CC2=O)cc1`, the “Average Ratio Compound to THI0019 (Activity against CS1)” value (“Average Ratio Compound to THI0019” for short) at α4β1/VCAM-1 was “Group II (Group II at least a ratio of >1 up to 2× that of THI0019 ran on the same plate)”.
In the case of `COc1ccc(CN(Cc2ccc(O)cc2)C(=O)CN2CCN(C(=O)OCc3ccccc3)CC2)cc1` [benzyl 4-(2-((4-hydroxybenzyl)(4-methoxybenzyl)amino)-2-oxoethyl)piperazine-1-carboxylate], the “Average Ratio Compound to THI0019” value at α4β1/VCAM-1 is reported as “Group II (Group II at least a ratio of >1 up to 2× that of THI0019 ran on the same plate)”. At LFA-1, the “LAD Raw Fluorescence Units against LFA-1; Ratio of raw counts Compound/THI0349” value amounted to 1.3 fold increased response.
`COc1cccc(CN(Cc2ccc(N(C)C)cc2)C(=O)OCCN2CC(=O)N(CCOC(=O)N(Cc3ccc(N(C)C)cc3)Cc3cccc(OC)c3)CC2=O)c1` [(2,5-dioxopiperazine-1,4-diyl)bis(ethane-2,1-diyl) bis(4-(dimethylamino)benzyl (3-methoxybenzyl)carbamate)]: the “Average Ratio Compound to THI0019” value at α4β1/VCAM-1 was “Group I (Group I< or =1)”. Besides, at LFA-1, the “LAD Raw Fluorescence Units against LFA-1; Ratio of raw counts Compound/THI0349” value stood at 7.8 fold increased response.
`COc1cccc(CN(Cc2cccc(OC)c2)C(=O)CCCCN2CCN(C(=O)OCc3ccccc3)CC2)c1` [benzyl 4-(5-(bis(3-methoxybenzyl)amino)-5-oxopentyl)piperazine-1-carboxylate]: the “Average Ratio Compound to THI0019” value at α4β1/VCAM-1 was “Group II (Group II at least a ratio of >1 up to 2× that of THI0019 ran on the same plate)”. Moreover, the “LAD Raw Fluorescence Units against LFA-1; Ratio of raw counts Compound/THI0349” value at LFA-1 is 3.9 fold increased response.
Take `COc1ccc(CN(CC(C)C)C(=O)CN2CCN(CC(=O)N(Cc3ccc(OC)cc3)CC(C)C)C(=O)C2)cc1` [2,2′-(2-oxopiperazine-1,4-diyl)bis(N-isobutyl-N-(4-methoxybenzyl)acetamide)]: the “Average Ratio Compound to THI0019” value on α4β1/VCAM-1 was “Group III (Group III is >2× of THI0019 but less than 5×)”. The “LAD Raw Fluorescence Units against LFA-1; Ratio of raw counts Compound/THI0349” value on LFA-1 turned out to be 0.19 fold response.
Take `O=C(CN1CCN(C(=O)OCc2ccccc2)CC1)N(Cc1ccc(O)cc1)Cc1ccc(O)cc1` [benzyl 4-(2-(bis(4-hydroxybenzyl)amino)-2-oxoethyl)piperazine-1-carboxylate]: the “Average Ratio Compound to THI0019” value on α4β1/VCAM-1 was “Group I (Group I< or =1)”. For the same compound, the “LAD Raw Fluorescence Units against LFA-1; Ratio of raw counts Compound/THI0349” value at LFA-1 is recorded as 0.3 fold response.
On to `O=C(CN1CCN(CC(=O)N(Cc2cccs2)Cc2cccs2)CC1)N(Cc1cccs1)Cc1cccs1` [2,2′-(piperazine-1,4-diyl)bis(N,N-bis(thiophen-2-ylmethyl)acetamide)], for which the “Average Ratio Compound to THI0019” value at α4β1/VCAM-1 is reported as “Group II (Group II at least a ratio of >1 up to 2× that of THI0019 ran on the same plate)”. The “LAD Raw Fluorescence Units against LFA-1; Ratio of raw counts Compound/THI0349” value at LFA-1 is given as 0.4 fold response.
For `O=C1CN(CCOC(=O)N(Cc2cccs2)Cc2cccs2)C(=O)CN1CCOC(=O)N(Cc1cccs1)Cc1cccs1` [(2,5-dioxopiperazine-1,4-diyl)bis(ethane-2,1-diyl) bis(bis(thiophen-2-ylmethyl)carbamate)], the “Average Ratio Compound to THI0019” value on α4β1/VCAM-1 is “Group II (Group II at least a ratio of >1 up to 2× that of THI0019 ran on the same plate)”. Besides, the “LAD Raw Fluorescence Units against LFA-1; Ratio of raw counts Compound/THI0349” value on LFA-1 was determined as 2 fold increased response.
As for `COc1ccc(CN(Cc2ccc(OC)cc2)C(=O)CN2CCN(Cc3cccc(OC)c3)CC2=O)cc1` [N,N-bis(4-methoxybenzyl)-2-(4-(3-methoxybenzyl)-2-oxopiperazin-1-yl)acetamide], the “Average Ratio Compound to THI0019” value on α4β1/VCAM-1 was “Group IV (Group IV>5× of THI0019 (with an upper limit of approximately 200 mM))”. In addition, on LFA-1, the “LAD Raw Fluorescence Units against LFA-1; Ratio of raw counts Compound/THI0349” value is given as 1.1 fold increased response.
Taken in the same sequence, the figures for `COc1ccc(CN(Cc2ccc(OC)cc2)C(=O)CCCN2CCN(C(=O)OCc3ccccc3)CC2)cc1` [benzyl 4-(4-(bis(4-methoxybenzyl)amino)-4-oxobutyl)piperazine-1-carboxylate] were “Group I (Group I< or =1)” and 3 fold increased response.
`COc1ccc(CN(Cc2ccc(OC)cc2)C(=O)OCCN2CC(=O)N(CCOC(=O)N(Cc3ccc(OC)cc3)Cc3ccc(OC)cc3)CC2=O)cc1` [(2,5-dioxopiperazine-1,4-diyl)bis(ethane-2,1-diyl) bis(bis(4-methoxybenzyl)carbamate)]: the “Average Ratio Compound to THI0019” value on α4β1/VCAM-1 is on record as “Group I (Group I< or =1)”. Further, the “LAD Raw Fluorescence Units against LFA-1; Ratio of raw counts Compound/THI0349” value on LFA-1 was found to be 7.8 fold increased response.
Consider `COc1ccc(CN(Cc2ccc(OC)cc2)C(=O)CN2CCN(C(=O)c3cccc(OC)c3)CC2=O)cc1` [2-(4-(3-methoxybenzoyl)-2-oxopiperazin-1-yl)-N,N-bis(4-methoxybenzyl)acetamide], for which, at α4β1/VCAM-1, the “Average Ratio Compound to THI0019” value is listed as “Group IV (Group IV>5× of THI0019 (with an upper limit of approximately 200 mM))”. Besides, the “LAD Raw Fluorescence Units against LFA-1; Ratio of raw counts Compound/THI0349” value at LFA-1 is 0.6 fold response.
With `COc1ccc(CN(Cc2ccc(N(C)C)cc2)C(=O)OCCN2CC(=O)N(CCOC(=O)N(Cc3ccc(OC)cc3)Cc3ccc(N(C)C)cc3)CC2=O)cc1` [(2,5-dioxopiperazine-1,4-diyl)bis(ethane-2,1-diyl) bis(4-(dimethylamino)benzyl (4-methoxybenzyl)carbamate)], on α4β1/VCAM-1, the “Average Ratio Compound to THI0019” value was “Group I (Group I< or =1)”. Besides, the “LAD Raw Fluorescence Units against LFA-1; Ratio of raw counts Compound/THI0349” value at LFA-1 is given as 9.9 fold increased response.
As to `COc1ccc(CN(Cc2ccc(OC)cc2)C(=O)CN2CCN(C(=O)OCc3cccc(OC)c3)CC2)cc1` [3-methoxybenzyl 4-(2-(bis(4-methoxybenzyl)amino)-2-oxoethyl)piperazine-1-carboxylate], the “Average Ratio Compound to THI0019” value on α4β1/VCAM-1 is reported as “Group II (Group II at least a ratio of >1 up to 2× that of THI0019 ran on the same plate)”. Besides, at LFA-1, the “LAD Raw Fluorescence Units against LFA-1; Ratio of raw counts Compound/THI0349” value is listed as 2.2 fold increased response.
As to `COc1cccc(CN(Cc2cccc(OC)c2)C(=O)CN2CC(=O)N(CC(=O)N(Cc3cccc(OC)c3)Cc3cccc(OC)c3)CC2=O)c1` [2,2′-(2,5-dioxopiperazine-1,4-diyl)bis(N,N-bis(3-methoxybenzyl)acetamide)], the “Average Ratio Compound to THI0019” value on α4β1/VCAM-1 was “Group I (Group I< or =1)”.
For the compound `CN(C)c1ccc(CN(Cc2ccc(N(C)C)cc2)C(=O)CN2CC(=O)N(CC(=O)N(Cc3ccc(N(C)C)cc3)Cc3ccc(N(C)C)cc3)CC2=O)cc1` [2,2′-(2,5-dioxopiperazine-1,4-diyl)bis(N,N-bis(4-(dimethylamino)benzyl)acetamide)], the “Average Ratio Compound to THI0019” value on α4β1/VCAM-1 is “Group I (Group I< or =1)”.
In the case of `O=C1CN(CC(=O)N(Cc2cccs2)Cc2cccs2)C(=O)CN1CC(=O)N(Cc1cccs1)Cc1cccs1` [2,2′-(2,5-dioxopiperazine-1,4-diyl)bis(N,N-bis(thiophen-2-ylmethyl)acetamide)], on α4β1/VCAM-1, the “Average Ratio Compound to THI0019” value was “Group III (Group III is >2× of THI0019 but less than 5×)”.
Consider `COc1ccc(CN(Cc2ccc(OC)cc2)C(=O)CN2CCN(CC(=O)N(Cc3ccc(OC)cc3)Cc3ccc(OC)cc3)CC2)cc1` [2,2′-(piperazine-1,4-diyl)bis(N,N-bis(4-methoxybenzyl)acetamide)], for which the “Average Ratio Compound to THI0019” value on α4β1/VCAM-1 was “Group I (Group I< or =1)”.
